{"source": "patent US20190136321A1", "about": "“USE OF TRANSLATIONAL PROFILING TO IDENTIFY TARGET MOLECULES FOR THERAPEUTIC TREATMENT” (The Regents of The University of California, priority 2013, published 2019)", "tested_on": "SW620 cells", "assay": "Ribosome profiling of SW620 cells (transcription, translational rate, translational efficiency)", "format": "cell-based, human", "settings": "8 hours", "procedure": "SW620 human colon cancer cells were cultured in DMEM media supplemented with penicillin G (100 U/ml), streptomycin (100 μg/ml), and 10% FBS in a humidified atmosphere of 5% CO2 maintained at 37° C.\nSW620 cells (ATCC, passage 12) were seeded at about 75% confluence 24 hrs prior to drug treatment. […] About 6×10^6 cells/10 cm plate and about 1×10^6 cells/well of a 6-well plate were harvested for ribosome profiling and Western blot analysis, respectively, following drug treatment."}
{"smiles": "CC(=O)Nc1cccc(-n2c(=O)n(C3CC3)c(=O)c3c(Nc4ccc(I)cc4F)n(C)c(=O)c(C)c32)c1", "note": "[GSK212]", "values": [{"measurement": "Profile TE", "setting": "gene IER3, 250 nM", "result": "−0.1", "unit": "log2 MEKi/DMSO"}, {"measurement": "Profile rna", "setting": "gene IER3, 250 nM", "result": "−2.2", "unit": "log2 MEKi/DMSO"}, {"measurement": "Profile rpf", "setting": "gene IER3, 250 nM", "result": "−2.3", "unit": "log2 MEKi/DMSO"}, {"measurement": "Profile TE", "setting": "gene IL8, 250 nM", "result": 2.4, "unit": "log2 MEKi/DMSO"}, {"measurement": "Profile rna", "setting": "gene IL8, 250 nM", "result": "−5.6", "unit": "log2 MEKi/DMSO"}, {"measurement": "Profile rpf", "setting": "gene IL8, 250 nM", "result": "−3.2", "unit": "log2 MEKi/DMSO"}, {"measurement": "Profile TE", "setting": "gene LIF, 250 nM", "result": 0.9, "unit": "log2 MEKi/DMSO"}, {"measurement": "Profile rna", "setting": "gene LIF, 250 nM", "result": "−1.7", "unit": "log2 MEKi/DMSO"}, {"measurement": "Profile rpf", "setting": "gene LIF, 250 nM", "result": "−0.9", "unit": "log2 MEKi/DMSO"}, {"measurement": "Profile TE", "setting": "gene LNK/SH2B3, 250 nM", "result": "−0.9", "unit": "log2 MEKi/DMSO"}, {"measurement": "Profile rna", "setting": "gene LNK/SH2B3, 250 nM", "result": 0.2, "unit": "log2 MEKi/DMSO"}, {"measurement": "Profile rpf", "setting": "gene LNK/SH2B3, 250 nM", "result": "−0.7", "unit": "log2 MEKi/DMSO"}, {"measurement": "Profile TE", "setting": "gene MAFF, 250 nM", "result": 0.6, "unit": "log2 MEKi/DMSO"}, {"measurement": "Profile rna", "setting": "gene MAFF, 250 nM", "result": "−1.7", "unit": "log2 MEKi/DMSO"}, {"measurement": "Profile rpf", "setting": "gene MAFF, 250 nM", "result": "−1.1", "unit": "log2 MEKi/DMSO"}, {"measurement": "Profile TE", "setting": "gene MAP2K3, 250 nM", "result": 1.0, "unit": "log2 MEKi/DMSO"}, {"measurement": "Profile rna", "setting": "gene MAP2K3, 250 nM", "result": "−1.6", "unit": "log2 MEKi/DMSO"}, {"measurement": "Profile rpf", "setting": "gene MAP2K3, 250 nM", "result": "−0.6", "unit": "log2 MEKi/DMSO"}, {"measurement": "Profile TE", "setting": "gene MYC, 250 nM", "result": "−0.3", "unit": "log2 MEKi/DMSO"}, {"measurement": "Profile rna", "setting": "gene MYC, 250 nM", "result": "−1.3", "unit": "log2 MEKi/DMSO"}, {"measurement": "Profile rpf", "setting": "gene MYC, 250 nM", "result": "−1.6", "unit": "log2 MEKi/DMSO"}, {"measurement": "Profile TE", "setting": "gene PHLDA2, 250 nM", "result": 1.1, "unit": "log2 MEKi/DMSO"}, {"measurement": "Profile rna", "setting": "gene PHLDA2, 250 nM", "result": "−2.1", "unit": "log2 MEKi/DMSO"}, {"measurement": "Profile rpf", "setting": "gene PHLDA2, 250 nM", "result": "−1.1", "unit": "log2 MEKi/DMSO"}, {"measurement": "Profile TE", "setting": "gene PLK3, 250 nM", "result": 0.7, "unit": "log2 MEKi/DMSO"}, {"measurement": "Profile rna", "setting": "gene PLK3, 250 nM", "result": "−3.1", "unit": "log2 MEKi/DMSO"}, {"measurement": "Profile rpf", "setting": "gene PLK3, 250 nM", "result": "−2.4", "unit": "log2 MEKi/DMSO"}, {"measurement": "Profile TE", "setting": "gene POLR1C, 250 nM", "result": 0.2, "unit": "log2 MEKi/DMSO"}, {"measurement": "Profile rna", "setting": "gene POLR1C, 250 nM", "result": "−0.8", "unit": "log2 MEKi/DMSO"}, {"measurement": "Profile rpf", "setting": "gene POLR1C, 250 nM", "result": "−0.6", "unit": "log2 MEKi/DMSO"}, {"measurement": "Profile TE", "setting": "gene POLR3G, 250 nM", "result": "−0.1", "unit": "log2 MEKi/DMSO"}, {"measurement": "Profile rna", "setting": "gene POLR3G, 250 nM", "result": "−0.7", "unit": "log2 MEKi/DMSO"}, {"measurement": "Profile rpf", "setting": "gene POLR3G, 250 nM", "result": "−0.8", "unit": "log2 MEKi/DMSO"}, {"measurement": "Profile TE", "setting": "gene PPAN, 250 nM", "result": "−0.7", "unit": "log2 MEKi/DMSO"}, {"measurement": "Profile rna", "setting": "gene PPAN, 250 nM", "result": "−0.4", "unit": "log2 MEKi/DMSO"}, {"measurement": "Profile rpf", "setting": "gene PPAN, 250 nM", "result": "−1.1", "unit": "log2 MEKi/DMSO"}, {"measurement": "Profile TE", "setting": "gene PPAT, 250 nM", "result": "−0.3", "unit": "log2 MEKi/DMSO"}, {"measurement": "Profile rna", "setting": "gene PPAT, 250 nM", "result": "−0.4", "unit": "log2 MEKi/DMSO"}, {"measurement": "Profile rpf", "setting": "gene PPAT, 250 nM", "result": "−0.7", "unit": "log2 MEKi/DMSO"}, {"measurement": "Profile TE", "setting": "gene PYCRL, 250 nM", "result": 0.1, "unit": "log2 MEKi/DMSO"}, {"measurement": "Profile rna", "setting": "gene PYCRL, 250 nM", "result": "−0.2", "unit": "log2 MEKi/DMSO"}, {"measurement": "Profile rpf", "setting": "gene PYCRL, 250 nM", "result": 0.0, "unit": "log2 MEKi/DMSO"}, {"measurement": "Profile TE", "setting": "gene RRS1, 250 nM", "result": 0.1, "unit": "log2 MEKi/DMSO"}, {"measurement": "Profile rna", "setting": "gene RRS1, 250 nM", "result": "−0.9", "unit": "log2 MEKi/DMSO"}, {"measurement": "Profile rpf", "setting": "gene RRS1, 250 nM", "result": "−0.8", "unit": "log2 MEKi/DMSO"}, {"measurement": "Profile TE", "setting": "gene SEMA6A, 250 nM", "result": "−1.5", "unit": "log2 MEKi/DMSO"}, {"measurement": "Profile rna", "setting": "gene SEMA6A, 250 nM", "result": 2.3, "unit": "log2 MEKi/DMSO"}, {"measurement": "Profile rpf", "setting": "gene SEMA6A, 250 nM", "result": 0.7, "unit": "log2 MEKi/DMSO"}, {"measurement": "Profile TE", "setting": "gene SLC1A5, 250 nM", "result": "−0.3", "unit": "log2 MEKi/DMSO"}, {"measurement": "Profile rna", "setting": "gene SLC1A5, 250 nM", "result": "−0.1", "unit": "log2 MEKi/DMSO"}, {"measurement": "Profile rpf", "setting": "gene SLC1A5, 250 nM", "result": "−0.5", "unit": "log2 MEKi/DMSO"}, {"measurement": "Profile TE", "setting": "gene SLC4A7, 250 nM", "result": "−0.9", "unit": "log2 MEKi/DMSO"}, {"measurement": "Profile rna", "setting": "gene SLC4A7, 250 nM", "result": "−0.2", "unit": "log2 MEKi/DMSO"}, {"measurement": "Profile rpf", "setting": "gene SLC4A7, 250 nM", "result": "−1.1", "unit": "log2 MEKi/DMSO"}, {"measurement": "Profile TE", "setting": "gene SPRED2, 250 nM", "result": "−1.3", "unit": "log2 MEKi/DMSO"}, {"measurement": "Profile rna", "setting": "gene SPRED2, 250 nM", "result": "−2.1", "unit": "log2 MEKi/DMSO"}, {"measurement": "Profile rpf", "setting": "gene SPRED2, 250 nM", "result": "−3.5", "unit": "log2 MEKi/DMSO"}, {"measurement": "Profile TE", "setting": "gene SPRY2, 250 nM", "result": 0.4, "unit": "log2 MEKi/DMSO"}, {"measurement": "Profile rna", "setting": "gene SPRY2, 250 nM", "result": "−1.7", "unit": "log2 MEKi/DMSO"}, {"measurement": "Profile rpf", "setting": "gene SPRY2, 250 nM", "result": "−1.3", "unit": "log2 MEKi/DMSO"}, {"measurement": "Profile TE", "setting": "gene SPRY4, 250 nM", "result": "−2.0", "unit": "log2 MEKi/DMSO"}, {"measurement": "Profile rna", "setting": "gene SPRY4, 250 nM", "result": "−5.2", "unit": "log2 MEKi/DMSO"}, {"measurement": "Profile rpf", "setting": "gene SPRY4, 250 nM", "result": "−7.1", "unit": "log2 MEKi/DMSO"}, {"measurement": "Profile TE", "setting": "gene TNC, 250 nM", "result": "−1.6", "unit": "log2 MEKi/DMSO"}, {"measurement": "Profile rna", "setting": "gene TNC, 250 nM", "result": 1.1, "unit": "log2 MEKi/DMSO"}, {"measurement": "Profile rpf", "setting": "gene TNC, 250 nM", "result": "−0.5", "unit": "log2 MEKi/DMSO"}, {"measurement": "Profile TE", "setting": "gene TNFRSF12A, 250 nM", "result": 0.2, "unit": "log2 MEKi/DMSO"}, {"measurement": "Profile rna", "setting": "gene TNFRSF12A, 250 nM", "result": "−2.2", "unit": "log2 MEKi/DMSO"}, {"measurement": "Profile rpf", "setting": "gene TNFRSF12A, 250 nM", "result": "−2.0", "unit": "log2 MEKi/DMSO"}, {"measurement": "Profile TE", "setting": "gene WDR3, 250 nM", "result": "−1.0", "unit": "log2 MEKi/DMSO"}, {"measurement": "Profile rna", "setting": "gene WDR3, 250 nM", "result": 0.0, "unit": "log2 MEKi/DMSO"}, {"measurement": "Profile rpf", "setting": "gene WDR3, 250 nM", "result": "−1.0", "unit": "log2 MEKi/DMSO"}, {"measurement": "Profile TE", "setting": "gene YRDC, 250 nM", "result": 0.1, "unit": "log2 MEKi/DMSO"}, {"measurement": "Profile rna", "setting": "gene YRDC, 250 nM", "result": "−0.7", "unit": "log2 MEKi/DMSO"}, {"measurement": "Profile rpf", "setting": "gene YRDC, 250 nM", "result": "−0.6", "unit": "log2 MEKi/DMSO"}]}
